Some test systems named below: CAKI-1 renal; DLD-1 colon; DMS 273 small cell lung; DU-145 prostate; HOP-18 NSCLC; HOP-92 NSCLC; KM20L2 colon; M19-MEL melanoma; MCF7 breast; NCI-H23 lung; OVCAR-3 ovarian; PC-3 prostate; RPMI-8226 leukemia; SF-268 CNS; SNB-19 CNS; T-47D breast; XF 498 CNS.
Holding throughout (test): NCI-60 cell line screen, 48 h

Several values for one entry are separate records, joined by “and”; a condition that tells them apart may be missing. Equal values may be shown once.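 Assay format: 96-well plates, 48-hour exposure. Abbreviation: GI50, concentration required for 50% inhibition of growth. The concentration for full growth arrest is given as TGI.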

Turning to `Cc1c2cc[n+](C)cc2c(C)c2c1[nH]c1ccccc12`, the TGI is 58.8 µM and 27.7 µM in the test on CAKI-1 renal; > 100 µM and 76.9 µM with DLD-1 colon; 12.3 µM and 14.2 µM in the test on DMS 273 small cell lung; 24.9 µM in the test with DU-145 prostate; 21.3 µM and 32 µM with HOP-18 NSCLC; 11 µM and 10.1 µM in the test on HOP-92 NSCLC. The TGI was 33.4 µM and 19.9 µM with KM20L2 colon; 3.34 µM and 2.32 µM in the test with M19-MEL melanoma; 21.9 µM and 39.5 µM in the test on MCF7 breast; 4.8 µM and 6.39 µM in the test on NCI-H23 lung; 19.7 µM and 21.3 µM with OVCAR-3 ovarian; greater than 100 µM in the test on PC-3 prostate. Moreover, the TGI in the test on RPMI-8226 leukemia was 88.7 µM and 92 µM; with SF-268 CNS, 1.87 µM and 1.88 µM; in the test on SNB-19 CNS, 1.09 µM and 1.3 µM; in the test on T-47D breast, 0.832 µM; in the test with XF 498 CNS, 5.09 µM and 2.45 µM. In addition, the GI50 is 5.47 µM with HOP-18 NSCLC; 4.95 µM and 2.34 µM with KM20L2 colon; 0.856 µM in the test with XF 498 CNS.
As to `Nc1nc(N)c2ncn(CC(CO)CC(c3ccccc3)P(=O)(O)O)c2n1` (centres undefined), the TGI with CAKI-1 renal, with DLD-1 colon, with DMS 273 small cell lung, with HOP-18 NSCLC, with HOP-92 NSCLC and in the test on KM20L2 colon was greater than 100 µM each time. Further, the TGI with M19-MEL melanoma, in the test with NCI-H23 lung, in the test on OVCAR-3 ovarian, with RPMI-8226 leukemia, with SF-268 CNS and in the test with SNB-19 CNS was greater than 100 µM each time. In addition, the TGI with XF 498 CNS was greater than 100 µM.
`CCCCCCCCCC[C@@H](O)[C@@H]1CC[C@@H]([C@@H]2CC[C@@H]([C@@H](O)CCCCCCCCCCC(O)CC3=CC(C)OC3=O)O2)O1` (some centres undefined): the TGI in the test on DU-145 prostate, with MCF7 breast, in the test with PC-3 prostate, with RPMI-8226 leukemia, in the test with SF-268 CNS and in the test with T-47D breast was greater than 10 µM each time.

These data come from PubChem BioAssay (NCI).
